Laboratory results taken from ChEMBL document CHEMBL1201862, “PubChem BioAssay data set” (2004).
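How tested: cells in 96-well plates exposed to compound for 48 hours at five concentrations. GI50 marks 50% less growth.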 Activity calls are given as the source filed them. Cut-off read from the data, not from the text of the source: active = GI50 up to about 1.1 µM and inactive = higher.

Assays:
Assay in all cases: NCI anticancer screen, dose series, 48 h
[1] = test system: DLD-1
[2] = test system: LXFL 529
[3] = test system: SR
[4] = test system: SW-620
[5] = test system: DMS-114
[6] = test system: OVCAR-8
[7] = test system: SNB-19
[8] = test system: SK-MEL-2
[9] = test system: RPMI-8226
[10] = test system: XF498
[11] = test system: U-251
[12] = test system: NCI-H226
[13] = test system: EKVX
[14] = test system: KM-20L2

Measured: GI50

O=C(O)C1CC2C=CCC(C2)C1 (stereo unspecified)
inactive: [1] > 100 µM | [2] > 100 µM | [3] > 100 µM | [4] > 100 µM | [5] > 100 µM | [6] > 100 µM | [7] > 100 µM | [8] 91.8 µM | [9] > 100 µM | [10] > 100 µM | [11] > 100 µM | [12] > 100 µM | [13] > 100 µM | [14] > 100 µM

COc1cc(C(=O)CC2OC(=O)C(Cl)=C2Cl)ccc1Cl (stereo unspecified)
inactive: [1] > 100 µM | [2] > 100 µM | [3] > 100 µM | [4] > 100 µM | [5] > 100 µM | [6] > 100 µM | [7] > 100 µM | [8] > 100 µM | [9] > 100 µM | [10] > 100 µM | [11] > 100 µM | [12] > 100 µM | [13] > 100 µM | [14] > 100 µM

CC(C)OP(=O)(OC(C)C)/C(F)=N/Nc1ccc([N+](=O)[O-])cc1
inactive: [1] > 100 µM | [2] > 100 µM | [3] > 100 µM | [4] > 100 µM | [5] > 100 µM | [6] > 100 µM | [7] > 100 µM | [8] > 100 µM | [9] > 100 µM | [10] > 100 µM | [11] > 100 µM | [13] > 100 µM | [14] > 100 µM

CSc1nc2c(nc(N)n2C2OCC(O)C(O)C2O)c(=O)[nH]1 (stereo unspecified)
inactive: [1] > 100 µM | [2] > 100 µM | [3] > 100 µM | [4] > 100 µM | [5] > 100 µM | [6] > 100 µM | [7] > 100 µM | [10] > 100 µM | [11] > 100 µM | [12] > 100 µM | [13] > 100 µM | [14] > 100 µM

N#CC(C#N)=C1CCC2C(=C(C#N)C#N)CCC12 (stereo unspecified)
inactive: [1] > 100 µM | [2] > 100 µM | [3] > 100 µM | [4] > 100 µM | [5] > 100 µM | [6] > 100 µM | [7] > 100 µM | [9] > 100 µM | [10] > 100 µM | [11] > 100 µM | [12] > 100 µM | [13] > 100 µM | [14] > 100 µM

COc1ccc(Nc2cnc3cc(N)ccc3n2)cc1OC
inactive: [1] > 100 µM | [2] 13.2 µM | [3] 33.7 µM | [4] > 100 µM | [5] 47 µM | [6] 37.4 µM | [8] 44.3 µM | [9] 23.9 µM | [10] 54.6 µM | [11] 40.7 µM | [12] 53.8 µM | [13] > 100 µM | [14] 63.1 µM

C1=CCN(c2ccccc2)CC1
inactive: [1] 15.5 µM | [2] 18.6 µM | [3] 2.93 µM | [4] 16.3 µM | [5] 32.4 µM | [6] 27 µM | [7] > 100 µM | [8] 39.1 µM | [9] 2.48 µM | [10] 17.1 µM | [11] > 100 µM | [13] 97.1 µM | [14] 55.6 µM

COc1ccc(-c2cc(N3CCN(c4ccccc4)CC3)c(C#N)c(=O)o2)cc1
inactive: [1] 57 µM | [2] 27.3 µM | [3] > 100 µM | [4] 42 µM | [5] 22.1 µM | [6] 20.7 µM | [7] 8.49 µM | [8] 18.8 µM | [9] 62.5 µM | [10] 6.59 µM | [11] 37.6 µM | [12] 7.74 µM | [13] 23.8 µM | [14] > 100 µM
